The values that follow come from PubChem BioAssay (NCI).

Among the test systems are NCI-H522 lung; SN12C renal; SW-620 colon; K-562 leukemia; IGROV1 ovarian; MALME-3M melanoma; NCI-H460 lung; SF-295 CNS; HL-60(TB) leukemia; SK-OV-3 ovarian.
Assay in all cases: DTP human tumour cell line panel, 48 h

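Assay format: 96-well plates, 48-hour exposure. GI50 = concentration required for 50% inhibition of growth. TGI is the concentration that stops growth completely.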 Bounds are passed on as bounds.

The GI50 is the concentration giving 50% growth inhibition. As usually defined, the TGI is the concentration giving total growth inhibition. On to `O=C1c2ccccc2-c2c1c1ccccc1c(=O)n2CCNCCn1c2c(c3ccccc3c1=O)C(=O)c1ccccc1-2`, for which the GI50 was more than 25 µM with NCI-H522 lung; more than 25 µM with SN12C renal; more than 25 µM in the test on SW-620 colon; 5.42 µM in the test on K-562 leukemia; more than 25 µM in the test on IGROV1 ovarian; more than 25 µM with MALME-3M melanoma. For the same compound, the GI50 in the test with NCI-H460 lung and with SF-295 CNS was more than 25 µM each time. Further, the TGI in the test on NCI-H522 lung was more than 25 µM; in the test with SN12C renal, more than 25 µM; with SW-620 colon it was more than 25 µM; in the test with K-562 leukemia, 16.2 µM; in the test on IGROV1 ovarian, more than 25 µM; in the test with MALME-3M melanoma, more than 25 µM. Further, the concentration for total growth inhibition (TGI) in the test with NCI-H460 lung and in the test with SF-295 CNS was more than 25 µM in each case.
Turning to `Cc1cc(C)n(C2=NS(=O)(=O)c3ccccc3N2C)n1`, the TGI in the test with NCI-H522 lung, in the test on HL-60(TB) leukemia, with SN12C renal, in the test with SW-620 colon, in the test with K-562 leukemia and in the test on IGROV1 ovarian was more than 100 µM each time. Moreover, the TGI in the test on NCI-H460 lung, in the test with SK-OV-3 ovarian and with SF-295 CNS was more than 100 µM each time.
Take `Cc1cccc(C)c1N1C(=O)C(=O)C(c2nc3ccccc3s2)C(=Nc2cccc3c(=O)[nH][nH]c(=O)c23)C1=O` (stereo not drawn): the total growth inhibition concentration (TGI) in the test with HL-60(TB) leukemia, in the test on SN12C renal, with SW-620 colon, in the test with K-562 leukemia, in the test on IGROV1 ovarian and with MALME-3M melanoma was more than 100 µM throughout. Further, the concentration for total growth inhibition (TGI) in the test on NCI-H460 lung, in the test on SK-OV-3 ovarian and in the test with SF-295 CNS was more than 100 µM in each case.
`O=C(NCCN1CCNCC1)c1ccc(Nc2nc3ccccc3c3occc23)cc1`: the GI50 in the test with NCI-H522 lung was 10.3 µM; in the test with HL-60(TB) leukemia, 17.6 µM; in the test with SN12C renal it was 18.2 µM; in the test on SW-620 colon, 3.6 µM; in the test on K-562 leukemia, 14.4 µM; in the test on IGROV1 ovarian, 1.97 µM. The GI50 in the test on NCI-H460 lung is 17.4 µM; with SK-OV-3 ovarian it was 19.3 µM; in the test with SF-295 CNS, 10.9 µM. Further, the total growth inhibition concentration (TGI) with NCI-H522 lung amounted to 28.3 µM; in the test on HL-60(TB) leukemia it was 33.5 µM; in the test with SN12C renal, 34.9 µM; in the test on SW-620 colon, 17.4 µM; in the test on K-562 leukemia, 40.1 µM; with IGROV1 ovarian it was 15.1 µM. The TGI with NCI-H460 lung is more than 100 µM; in the test with SK-OV-3 ovarian, 47.5 µM; in the test on SF-295 CNS, 30.5 µM.
As for `Cc1ccc2oc(=O)c(-c3ccccc3)nc2c1`, the total growth inhibition concentration (TGI) is 48.7 µM with NCI-H522 lung; more than 100 µM in the test on SN12C renal; more than 100 µM in the test on SW-620 colon; more than 100 µM with K-562 leukemia; 66.1 µM in the test with MALME-3M melanoma; more than 100 µM in the test on NCI-H460 lung. For the same compound, the TGI in the test on SF-295 CNS was more than 100 µM.
For the compound `CC(C)[O-].CC(C)[O-].O=c1cccccc1[O-].O=c1cccccc1[O-].[Ti+4]`, the TGI with NCI-H522 lung is 62.8 µM; with HL-60(TB) leukemia, more than 100 µM; in the test with SW-620 colon, more than 100 µM; in the test with K-562 leukemia, more than 100 µM; in the test on IGROV1 ovarian, more than 100 µM; in the test on MALME-3M melanoma, 70.2 µM. Further, the TGI with SK-OV-3 ovarian and in the test on SF-295 CNS was more than 100 µM in each case.
`O=C(c1cccs1)C1NO[N+]([O-])=C1c1cccs1` (stereo not drawn): the 50% growth inhibitory concentration (GI50) with NCI-H522 lung was 0.174 µM; in the test on SN12C renal, 9.49 µM; in the test with SW-620 colon it was 1.54 µM; in the test with K-562 leukemia it was 3.02 µM; in the test with IGROV1 ovarian, 1.75 µM; in the test with MALME-3M melanoma, 0.517 µM. In addition, the GI50 in the test on NCI-H460 lung was 5.37 µM; in the test with SK-OV-3 ovarian, 18.6 µM; with SF-295 CNS, 6.07 µM. The total growth inhibition concentration (TGI) in the test on NCI-H522 lung is 0.336 µM; with SN12C renal, 21.8 µM; in the test on SW-620 colon it was 3.01 µM; in the test with K-562 leukemia, more than 100 µM; with IGROV1 ovarian it was 3.72 µM; in the test with MALME-3M melanoma, 1.19 µM. For the same compound, the values for the TGI in the test on NCI-H460 lung, with SK-OV-3 ovarian and in the test on SF-295 CNS were 13.1 µM, 32.8 µM and 12.4 µM, respectively.
Consider `O=C(CC1(O)C(=O)Nc2c(Cl)ccc(Cl)c21)c1ccc(Cl)cc1Cl` (stereo not drawn), for which the concentration for total growth inhibition (TGI) with SN12C renal worked out at 30.5 µM; in the test on SW-620 colon, 56.6 µM; in the test with IGROV1 ovarian, 35.4 µM; in the test on MALME-3M melanoma it was 34.9 µM; in the test on NCI-H460 lung, 38.3 µM; in the test with SK-OV-3 ovarian it was 46.6 µM. In the test on SF-295 CNS, the TGI was 41.6 µM.
On to `C=CC1=C(C)C2=NC1=CC1=NC(=CC3=C(C)C4=C(O)[C@H](C(=O)OC)C(=C5NC(=C2)[C@@H](C)[C@@H]5CCC(=O)O)C4=N3)C(CC)=C1C`, for which the total growth inhibition concentration (TGI) in the test on SN12C renal was more than 100 µM; in the test on SW-620 colon, 10.8 µM; in the test on K-562 leukemia it was 6.24 µM; with IGROV1 ovarian, more than 23.8 µM; with MALME-3M melanoma it was more than 100 µM; with NCI-H460 lung it was 13.8 µM. Further, the values for the total growth inhibition concentration (TGI) in the test with SK-OV-3 ovarian and with SF-295 CNS were more than 40 µM and 6.01 µM, respectively.
Consider `O=C1CNS(=O)(=O)N1`, for which the concentration for total growth inhibition (TGI) in the test on NCI-H522 lung, in the test on HL-60(TB) leukemia, in the test on SN12C renal, with SW-620 colon, with K-562 leukemia and in the test with IGROV1 ovarian was more than 100 µM throughout. The concentration for total growth inhibition (TGI) in the test on MALME-3M melanoma, in the test with SK-OV-3 ovarian and with SF-295 CNS was more than 100 µM in each case.
Turning to `c1ccc(-c2nc(N3CCCNCC3)c3nc(-c4ccccc4)oc3n2)cc1`, the GI50 is 1.83 µM with HL-60(TB) leukemia; 1.74 µM with SN12C renal; 1.76 µM in the test with SW-620 colon; 1.59 µM in the test on IGROV1 ovarian; 1.77 µM in the test with MALME-3M melanoma; 1.86 µM in the test on NCI-H460 lung. In addition, the GI50 in the test on SK-OV-3 ovarian is 1.74 µM; in the test on SF-295 CNS, 1.81 µM. Also, the TGI in the test on HL-60(TB) leukemia came out at 3.55 µM; in the test with SN12C renal, 3.38 µM; in the test on SW-620 colon, 3.47 µM; in the test with IGROV1 ovarian it was 3.13 µM; with MALME-3M melanoma, 3.33 µM; with NCI-H460 lung, 3.54 µM. Besides, the TGI in the test on SK-OV-3 ovarian was determined as 3.19 µM; in the test on SF-295 CNS it was 3.25 µM.
`CSc1ccc(N(C)c2nc(C)nc3c2CCC3)cc1`: the GI50 with NCI-H522 lung, in the test on HL-60(TB) leukemia, in the test on SN12C renal, with SW-620 colon, in the test with K-562 leukemia and in the test on IGROV1 ovarian was less than 0.01 µM in each case. The GI50 in the test on NCI-H460 lung, in the test on SK-OV-3 ovarian and with SF-295 CNS was less than 0.01 µM in each case. Moreover, the TGI was less than 0.01 µM in the test with NCI-H522 lung; less than 0.01 µM in the test with HL-60(TB) leukemia; more than 100 µM in the test on SN12C renal; more than 100 µM with SW-620 colon; more than 100 µM in the test with K-562 leukemia; more than 100 µM in the test with IGROV1 ovarian. Further, the TGI with NCI-H460 lung was 19 µM; in the test with SK-OV-3 ovarian, 16.1 µM; with SF-295 CNS, 12.2 µM.
